Test results taken from PubChem BioAssay (NCI).
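Assay format: 96-well plates, 48-hour exposure. GI50 = concentration required for 50% inhibition of growth. Definition used: TGI = concentration required for complete inhibition of growth.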

Experiments:
Assay in all cases: inhibition of tumour cell growth, NCI panel, 48 h; in the data active = GI50 below about 0.43 µM; inactive = the rest
HL-60(TB) leukemia = system: HL-60(TB) leukemia
HS 578T breast = system: HS 578T breast
786-0 renal = system: 786-0 renal
CCRF-CEM leukemia = system: CCRF-CEM leukemia
MOLT-4 leukemia = system: MOLT-4 leukemia
NCI-H522 lung = system: NCI-H522 lung
A549 NSCLC = system: A549 NSCLC
MCF7 breast = system: MCF7 breast
MALME-3M melanoma = system: MALME-3M melanoma
HT29 colon = system: HT29 colon
BT-549 breast = system: BT-549 breast
MDA-MB-435 = system: MDA-MB-435
SK-MEL-5 melanoma = system: SK-MEL-5 melanoma
U251 CNS = system: U251 CNS
SNB-75 CNS = system: SNB-75 CNS
A498 renal = system: A498 renal
DU-145 prostate = system: DU-145 prostate
NCI/ADR-RES ovarian = system: NCI/ADR-RES ovarian
PC-3 prostate = system: PC-3 prostate
SR leukemia = system: SR leukemia
SN12C renal = system: SN12C renal
NCI-H226 lung = system: NCI-H226 lung
SF-539 CNS = system: SF-539 CNS
LOX IMVI melanoma = system: LOX IMVI melanoma
SNB-19 CNS = system: SNB-19 CNS
SK-MEL-28 melanoma = system: SK-MEL-28 melanoma
M14 melanoma = system: M14 melanoma
OVCAR-8 ovarian = system: OVCAR-8 ovarian
HCT-116 colon = system: HCT-116 colon
IGROV1 ovarian = system: IGROV1 ovarian
HCC-2998 colon = system: HCC-2998 colon
RPMI-8226 leukemia = system: RPMI-8226 leukemia
HCT-15 colon = system: HCT-15 colon
UACC-257 melanoma = system: UACC-257 melanoma
HOP-62 NSCLC = system: HOP-62 NSCLC
OVCAR-3 ovarian = system: OVCAR-3 ovarian
UACC-62 melanoma = system: UACC-62 melanoma
KM12 colon = system: KM12 colon
RXF 393 renal = system: RXF 393 renal
SK-MEL-2 melanoma = system: SK-MEL-2 melanoma
ACHN renal = system: ACHN renal
OVCAR-5 ovarian = system: OVCAR-5 ovarian
TK-10 renal = system: TK-10 renal
SF-268 CNS = system: SF-268 CNS
OVCAR-4 ovarian = system: OVCAR-4 ovarian
HOP-92 NSCLC = system: HOP-92 NSCLC
EKVX NSCLC = system: EKVX NSCLC
NCI-H23 lung = system: NCI-H23 lung
UO-31 renal = system: UO-31 renal
K-562 leukemia = system: K-562 leukemia
CAKI-1 renal = system: CAKI-1 renal
T-47D breast = system: T-47D breast
MDA-MB-231 breast = system: MDA-MB-231 breast
NCI-H460 lung = system: NCI-H460 lung
SF-295 CNS = system: SF-295 CNS
SK-OV-3 ovarian = system: SK-OV-3 ovarian
COLO 205 colon = system: COLO 205 colon
SW-620 colon = system: SW-620 colon

CC(=O)N/N=C1/NN(C(C)=O)C2(S1)C(=O)Nc1ccc(Br)cc12 (centres undefined)
> 100000 nM: TGI (HL-60(TB) leukemia) | TGI (HS 578T breast) | TGI (786-0 renal) | TGI (CCRF-CEM leukemia) | TGI (MOLT-4 leukemia) | TGI (NCI-H522 lung) | TGI (A549 NSCLC) | TGI (MCF7 breast) | TGI (MALME-3M melanoma) | TGI (HT29 colon) | TGI (BT-549 breast) | TGI (MDA-MB-435) | TGI (SK-MEL-5 melanoma) | TGI (U251 CNS) | TGI (SNB-75 CNS) | TGI (A498 renal) | TGI (DU-145 prostate) | TGI (NCI/ADR-RES ovarian) | TGI (PC-3 prostate) | TGI (SR leukemia) | TGI (SN12C renal) | TGI (NCI-H226 lung) | TGI (SF-539 CNS) | TGI (LOX IMVI melanoma) | TGI (SNB-19 CNS) | TGI (SK-MEL-28 melanoma) | TGI (M14 melanoma) | TGI (OVCAR-8 ovarian) | TGI (HCT-116 colon) | TGI (IGROV1 ovarian) | TGI (HCC-2998 colon) | TGI (RPMI-8226 leukemia) | TGI (HCT-15 colon) | TGI (UACC-257 melanoma) | TGI (HOP-62 NSCLC) | TGI (OVCAR-3 ovarian) | TGI (UACC-62 melanoma) | TGI (KM12 colon) | TGI (RXF 393 renal) | TGI (SK-MEL-2 melanoma) | TGI (ACHN renal) | TGI (OVCAR-5 ovarian) | TGI (TK-10 renal) | TGI (SF-268 CNS) | TGI (OVCAR-4 ovarian) | TGI (HOP-92 NSCLC) | TGI (EKVX NSCLC) | TGI (NCI-H23 lung) | TGI (UO-31 renal) | TGI (K-562 leukemia) | TGI (CAKI-1 renal) | TGI (T-47D breast) | TGI (MDA-MB-231 breast) | TGI (NCI-H460 lung) | TGI (SF-295 CNS)

CN(CCCN)CCCNc1nc2ccccc2c2[nH]c3ccccc3c12
947 nM: TGI (RPMI-8226 leukemia)
8200 nM: TGI (EKVX NSCLC)
835 nM: TGI (SK-MEL-2 melanoma)
853 nM: TGI (786-0 renal)
1980 nM: TGI (SK-MEL-5 melanoma)
570 nM: TGI (NCI-H23 lung)
1030 nM: TGI (MCF7 breast)
738 nM: TGI (SF-295 CNS)
3490 nM: TGI (UACC-257 melanoma)
10300 nM: TGI (DU-145 prostate)
1070 nM: TGI (U251 CNS) | TGI (SF-268 CNS)
9680 nM: TGI (HCT-15 colon)
1240 nM: TGI (MOLT-4 leukemia)
816 nM: TGI (MDA-MB-435)
943 nM: TGI (SNB-75 CNS) | TGI (SF-539 CNS) | TGI (SNB-19 CNS)
1930 nM: TGI (M14 melanoma)
1340 nM: TGI (UO-31 renal)
271 nM: TGI (HCC-2998 colon)
774 nM: TGI (MDA-MB-231 breast)
515 nM: TGI (RXF 393 renal)
606 nM: TGI (SN12C renal)
772 nM: TGI (T-47D breast)
997 nM: TGI (NCI-H226 lung)
334 nM: TGI (HS 578T breast)
215 nM: TGI (NCI-H522 lung)
754 nM: TGI (CAKI-1 renal)
1170 nM: TGI (SK-MEL-28 melanoma) | TGI (NCI-H460 lung)
652 nM: TGI (OVCAR-5 ovarian)
509 nM: TGI (COLO 205 colon)
736 nM: TGI (HOP-92 NSCLC)
496 nM: TGI (OVCAR-8 ovarian)
10800 nM: TGI (NCI/ADR-RES ovarian)
346 nM: TGI (K-562 leukemia)
2250 nM: TGI (SR leukemia)
7290 nM: TGI (SK-OV-3 ovarian)
325 nM: TGI (MALME-3M melanoma)
1200 nM: TGI (HCT-116 colon)
683 nM: TGI (HOP-62 NSCLC)
951 nM: TGI (HT29 colon)
3160 nM: TGI (TK-10 renal)
692 nM: TGI (UACC-62 melanoma)
614 nM: TGI (OVCAR-4 ovarian)
1280 nM: TGI (PC-3 prostate)
1580 nM: TGI (CCRF-CEM leukemia)
3080 nM: TGI (A498 renal)
inactive: GI50 (SK-OV-3 ovarian) 2070 nM | GI50 (BT-549 breast) 924 nM | GI50 (SK-MEL-5 melanoma) 747 nM | GI50 (A498 renal) 1610 nM | GI50 (NCI/ADR-RES ovarian) 1480 nM | GI50 (M14 melanoma) 696 nM | GI50 (HCT-15 colon) 446 nM | GI50 (UACC-257 melanoma) 1770 nM | GI50 (TK-10 renal) 540 nM | GI50 (EKVX NSCLC) 1440 nM
2150 nM: TGI (BT-549 breast)
314 nM: TGI (KM12 colon)
1210 nM: TGI (IGROV1 ovarian)
1350 nM: TGI (OVCAR-3 ovarian)
1640 nM: TGI (SW-620 colon)
4450 nM: TGI (ACHN renal)
2220 nM: TGI (A549 NSCLC)
590 nM: TGI (HL-60(TB) leukemia)
active: GI50 (HL-60(TB) leukemia) 138 nM | GI50 (HS 578T breast) 76.5 nM | GI50 (786-0 renal) 169 nM | GI50 (CCRF-CEM leukemia) 173 nM | GI50 (MOLT-4 leukemia) 186 nM | GI50 (NCI-H522 lung) 61.3 nM | GI50 (A549 NSCLC) 160 nM | GI50 (MCF7 breast) 245 nM | GI50 (MALME-3M melanoma) 115 nM | GI50 (HT29 colon) 193 nM | GI50 (MDA-MB-435) 281 nM | GI50 (U251 CNS) 159 nM | GI50 (SNB-75 CNS) 272 nM | GI50 (DU-145 prostate) 300 nM | GI50 (PC-3 prostate) 342 nM | GI50 (SR leukemia) 381 nM | GI50 (SN12C renal) 119 nM | GI50 (NCI-H226 lung) 297 nM | GI50 (SF-539 CNS) 324 nM | GI50 (SNB-19 CNS) 229 nM | GI50 (SK-MEL-28 melanoma) 342 nM | GI50 (OVCAR-8 ovarian) 82.5 nM | GI50 (HCT-116 colon) 173 nM | GI50 (IGROV1 ovarian) 329 nM | GI50 (HCC-2998 colon) 113 nM | GI50 (RPMI-8226 leukemia) 207 nM | GI50 (HOP-62 NSCLC) 179 nM | GI50 (OVCAR-3 ovarian) 359 nM | GI50 (COLO 205 colon) 178 nM | GI50 (UACC-62 melanoma) 285 nM | GI50 (KM12 colon) 51.3 nM | GI50 (RXF 393 renal) 109 nM | GI50 (SK-MEL-2 melanoma) 306 nM | GI50 (ACHN renal) 409 nM | GI50 (SW-620 colon) 315 nM | GI50 (OVCAR-5 ovarian) 180 nM | GI50 (SF-268 CNS) 241 nM | GI50 (OVCAR-4 ovarian) 201 nM | GI50 (HOP-92 NSCLC) 208 nM | GI50 (NCI-H23 lung) 201 nM | GI50 (UO-31 renal) 337 nM | GI50 (K-562 leukemia) 63.8 nM | GI50 (CAKI-1 renal) 259 nM | GI50 (T-47D breast) 283 nM | GI50 (MDA-MB-231 breast) 231 nM | GI50 (NCI-H460 lung) 304 nM | GI50 (SF-295 CNS) 224 nM
